Like-named read-outs stand apart in the source and are kept apart here.
Assays:
[1] = biological target: T1, MAO-B (Homo sapiens, UniProt P27338); test: inhibitory action on MAO-B (statement, no method given); type: biochemical
T1 sequence (P27338 1-520): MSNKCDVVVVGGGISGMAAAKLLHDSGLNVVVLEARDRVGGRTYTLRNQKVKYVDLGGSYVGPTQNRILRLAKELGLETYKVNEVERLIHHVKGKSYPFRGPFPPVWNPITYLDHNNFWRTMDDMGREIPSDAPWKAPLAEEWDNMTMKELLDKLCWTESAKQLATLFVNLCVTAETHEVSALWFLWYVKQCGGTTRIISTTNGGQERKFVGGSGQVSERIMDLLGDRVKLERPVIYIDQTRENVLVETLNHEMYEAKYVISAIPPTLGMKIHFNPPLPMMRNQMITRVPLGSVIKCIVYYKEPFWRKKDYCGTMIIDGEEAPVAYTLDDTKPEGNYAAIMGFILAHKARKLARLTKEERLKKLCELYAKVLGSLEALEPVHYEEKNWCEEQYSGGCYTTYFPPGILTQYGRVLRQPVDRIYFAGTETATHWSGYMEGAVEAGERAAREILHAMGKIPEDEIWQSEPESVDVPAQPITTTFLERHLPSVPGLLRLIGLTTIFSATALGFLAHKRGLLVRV

[2] = human plasma pharmacokinetics of orally administered tyramine; type: in vivo
From the text: Such pharmaceutical formulations are manufactured in such a way that the product passes unchanged through the stomach of the patient, and dissolves and releases the active ingredient when it leaves the stomach and enters the middle and lower portions of the small intestine. Such formulations can be in tablet or pellet form, where the active ingredient is in the inner part of the tablet or pellet and is enclosed in a film or envelope, the “enteric coating,” which is insoluble in acid environments, such as the stomach, but is soluble in near-neutral environments such as the small intestine.

| inhibitory actions on MAO-B [1] | time after dosing at which non-detectable levels observed ([2]; human plasma, tyramine with food in a capsule, oral dose of 200 mg) [h] | Tmax ([2]; human plasma, tyramine with food in a capsule, oral dose of 200 mg, read-out: Tmax) [h] | Tmax ([2]; human, plasma, oral, 200 mg, dietary tyramine, absorbed and metabolized in stomach, upper small intestine and liver, read-out: average Tmax) [h] | Compound |
| --- | --- | --- | --- | --- |
| devoid of inhibitory actions on MAO-B | – | – | – | O=S1(=O)c2ccc(F)cc2Oc2cc(OCC(F)(F)F)ccc21 [CX157, 3-fluoro-7-(2,2,2-trifluoroethoxy)phenoxathiin 10,10-dioxide] |
| – | 3 to 4 | ≤ 1.25 | 1.25 | NCCc1ccc(O)cc1 [tyramine] |

— patent US20120003303A1, “ORAL ENTERIC ANTIDEPRESSANT FORMULATION” (CeNeRx Biopharma, Inc, priority 2009, published 2012)
